The numbers were not newly measured in patent publication US20050226814A1, “Diagnostic method and kit for implantation of a sustained release drug-delivery implant with a steroid” (Bausch & Lomb Incorporated, priority 2004, published 2005), which cites them from elsewhere.

The subject of data set [1] is proliferative vitreoretinopathy. The following applies: injected into the sub-conjuctival area.
The subject of data set [2] is retinochoroid disorders. The following applies: injection into the eye of a patient.

Regarding `C[C@]12CCC(=O)C=C1CC[C@@H]1[C@@H]2[C@@H](O)C[C@@]2(C)[C@H]1CC[C@]2(O)C(=O)CO` [hydrocortisone], the “effect on proliferative vitreoretinopathy” value in data set [1] is on record as “inhibited proliferative vitreoretinopathy”.
Turning to `C[C@]12C=CC(=O)C=C1CC[C@H]1[C@@H]3C[C@@H](O)[C@](O)(C(=O)CO)[C@@]3(C)C[C@H](O)[C@@]12F` [trimacinolone, triamcinolone], in data set [2], the long-term effect entry was “did not have a significantly long-term effect”.
